Bounds are passed on as bounds.

Type in all cases: biochemical
Experiment [1] deals with T1, ROCK2 (Homo sapiens, UniProt O75116). Briefly: In vitro inhibitory activity assay ROCK2 (Method B, ADP-Glo, 200 μM ATP). Particulars: ATP 200 μM, read-out: Method B ROCK 2 (Ki). How it is done: (§1) In Vitro Inhibitory Activity Assay Description ROCK1 and ROCK2
(§2) The effectiveness of compounds of the present invention to inhibit Rho kinase activity can be determined in a 10 μl assay containing 40 mM Tris pH7.5, 20 mM MgCl2 0.1 mg/mL BSA, 50 μM DTT and 2.5 μM peptide substrate (Myelin Basic Protein) using an ADP-Glo kit (Promega). Compounds were dissolved in DMSO such that the final concentration of DMSO was 1% in the assay. All reactions/incubations are performed at 25° C. Compound (2 μL) and either Rho kinase 1 or 2 (4 μl) were mixed and incubated for 30 min. Reactions were initiated by addition of ATP (4 μL) such that the final concentration of ATP in the assay was 200 μM. After a 1 hour incubation 10111 of ADP-Glo Reagent was added and after a further 45 minute incubation 20 μL of Kinase Detection Buffer was added and the mixture incubated for a further 30 minutes. The luminescent signal was measured on a luminometer. […] Compounds were tested in dose-response format and the inhibition of kinase activity was calculated at each concentration of compound. To determine the IC50 (concentration of compound required to inhibit 50% of the enzyme activity) data were fit to a plot of % inhibition vs Log10 compound concentration using a sigmoidal fit with a variable slope and fixing the maximum to 100% and the minimum to 0%. To determine the Ki values the Cheng-Prusoff equation was utilized (Ki=IC50/(1[S]/Km).
(In ADP-Glo the light output rises with the ADP produced.)

The target of experiment [2] is T1, ROCK2. Briefly: In vitro inhibitory activity assay ROCK2 (Method A, ADP-Glo, 10 μM ATP). Conditions: ATP 10 μM, read-out: Method A ROCK 2 (Ki). The protocol:
(§3) In vitro inhibitory activity assay description ROCK1 and ROCK2
as §2, with “(2 uL)” for “(2 μL)”, “was 10” for “was 200”, “incubation […]” for “incubation 10111”, “45 minutes” for “45 minute”, “20 uL” for “20 μL”, “utilized (Ki=IC50/(1+[S]/Km).” for “utilized (Ki=IC50/(1[S]/Km).”

Experiment [3] addresses T2, ROCK1 (Homo sapiens, UniProt Q13464). Briefly: In vitro inhibitory activity assay ROCK1 (Method A, ADP-Glo, 10 μM ATP). Conditions: ATP 10 μM, read-out: Method A ROCK 1 (Ki). The protocol:
as §3
as §2, with “(2 uL)” for “(2 μL)”, “was 10” for “was 200”, “incubation […]” for “incubation 10111”, “45 minutes” for “45 minute”, “20 uL” for “20 μL”, “utilized (Ki=IC50/(1+[S]/Km).” for “utilized (Ki=IC50/(1[S]/Km).”

A further experiment concerns the target PKA (Homo sapiens, UniProt P17612). Briefly: In vitro inhibitory activity assay for PKA (ADP-Glo), reported as selectivity ratio vs ROCK2. Particulars: Ki PKA divided by Ki ROCK2 (method B). How it is done:
In vitro inhibitory activity assay description for PKA
The effectiveness of compounds of the present invention to inhibit PKA activity can be determined in a […], assay containing 40 mM Tris pH7.5, 20 mM MgCl2 0.1 mg/mL BSA, 50 μM DTT and 260 μM peptide substrate (kemptide) using an ADP-Glo kit (Promega). Compounds were dissolved in DMSO such that the final concentration of DMSO was 1% in the assay. All reactions/incubations are performed at 25° C. Compound and PKA enzyme (6 μl) were mixed and incubated for 30 min. Reactions were initiated by addition of ATP (4 μL) such that the final concentration of ATP in the assay was 10 μM. After a 30 minute incubation 10 μL of ADP-Glo Reagent was added and after a further 1 hour incubation 20 μL of Kinase Detection Buffer was added and the mixture incubated for a further 45 minutes. The luminescent signal was measured on a luminometer. […] Compounds were tested in dose-response format and the inhibition of kinase activity was calculated at each concentration of compound. To determine the IC50 (concentration of compound required to inhibit 50% of the enzyme activity) data were fit to a plot of % inhibition vs Log10 compound concentration using a sigmoidal fit with a variable slope and fixing the maximum to 100% and the minimum to 0%. To determine the Ki values the Cheng-Prusoff equation was utilized (Ki=IC50/(1+[S]/Km).
In vitro inhibitory activities for PKA were reported as selectivity ratio vs. ROCK2. Selectivity ratio PKA/ROCK2 was calculated by dividing the Ki value for PKA by Ki value of ROCK2 (method B) and reported into table 1.

The target of experiment [4] is T2, ROCK1. The experiment can be described thus: In vitro inhibitory activity assay ROCK1 (Method B, ADP-Glo, 200 μM ATP). Particulars: ATP 200 μM, read-out: Method B ROCK 1 (Ki). How it is done:
as §1, §2

T2 sequence (Q13464 whole entry): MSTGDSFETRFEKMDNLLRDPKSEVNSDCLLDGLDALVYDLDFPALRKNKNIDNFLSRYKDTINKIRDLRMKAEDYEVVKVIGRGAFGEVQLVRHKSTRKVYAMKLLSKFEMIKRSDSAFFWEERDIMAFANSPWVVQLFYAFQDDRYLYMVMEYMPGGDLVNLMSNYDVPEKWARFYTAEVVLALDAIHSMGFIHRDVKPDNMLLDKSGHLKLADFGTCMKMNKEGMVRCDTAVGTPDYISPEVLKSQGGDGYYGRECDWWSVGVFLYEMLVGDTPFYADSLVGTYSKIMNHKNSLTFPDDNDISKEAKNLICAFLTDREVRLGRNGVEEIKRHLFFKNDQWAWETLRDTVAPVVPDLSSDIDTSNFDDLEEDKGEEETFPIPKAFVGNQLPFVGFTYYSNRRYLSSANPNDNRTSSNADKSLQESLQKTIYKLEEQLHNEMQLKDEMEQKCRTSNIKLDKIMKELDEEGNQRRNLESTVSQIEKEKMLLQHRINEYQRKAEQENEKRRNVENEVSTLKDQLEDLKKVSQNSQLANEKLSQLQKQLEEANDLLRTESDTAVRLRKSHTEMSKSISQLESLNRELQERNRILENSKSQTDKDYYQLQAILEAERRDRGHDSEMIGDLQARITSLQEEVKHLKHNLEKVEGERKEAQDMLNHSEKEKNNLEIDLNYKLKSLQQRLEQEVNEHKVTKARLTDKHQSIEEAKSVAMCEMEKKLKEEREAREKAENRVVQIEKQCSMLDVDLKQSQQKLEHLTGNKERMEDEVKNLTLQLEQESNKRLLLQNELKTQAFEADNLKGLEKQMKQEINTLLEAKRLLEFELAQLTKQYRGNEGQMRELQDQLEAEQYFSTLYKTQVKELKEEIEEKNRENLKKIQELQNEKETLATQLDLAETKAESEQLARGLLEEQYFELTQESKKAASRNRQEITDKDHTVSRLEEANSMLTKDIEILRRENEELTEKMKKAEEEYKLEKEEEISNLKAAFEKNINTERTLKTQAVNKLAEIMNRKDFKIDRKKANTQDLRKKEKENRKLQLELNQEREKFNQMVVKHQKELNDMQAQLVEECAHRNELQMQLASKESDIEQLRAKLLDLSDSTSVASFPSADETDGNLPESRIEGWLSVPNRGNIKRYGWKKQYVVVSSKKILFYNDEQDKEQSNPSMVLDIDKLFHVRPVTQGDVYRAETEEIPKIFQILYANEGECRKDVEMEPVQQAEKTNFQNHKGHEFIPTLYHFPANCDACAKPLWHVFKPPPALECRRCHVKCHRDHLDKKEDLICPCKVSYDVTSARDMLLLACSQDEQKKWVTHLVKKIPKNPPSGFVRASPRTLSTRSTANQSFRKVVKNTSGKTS
T1 sequence (O75116 whole entry): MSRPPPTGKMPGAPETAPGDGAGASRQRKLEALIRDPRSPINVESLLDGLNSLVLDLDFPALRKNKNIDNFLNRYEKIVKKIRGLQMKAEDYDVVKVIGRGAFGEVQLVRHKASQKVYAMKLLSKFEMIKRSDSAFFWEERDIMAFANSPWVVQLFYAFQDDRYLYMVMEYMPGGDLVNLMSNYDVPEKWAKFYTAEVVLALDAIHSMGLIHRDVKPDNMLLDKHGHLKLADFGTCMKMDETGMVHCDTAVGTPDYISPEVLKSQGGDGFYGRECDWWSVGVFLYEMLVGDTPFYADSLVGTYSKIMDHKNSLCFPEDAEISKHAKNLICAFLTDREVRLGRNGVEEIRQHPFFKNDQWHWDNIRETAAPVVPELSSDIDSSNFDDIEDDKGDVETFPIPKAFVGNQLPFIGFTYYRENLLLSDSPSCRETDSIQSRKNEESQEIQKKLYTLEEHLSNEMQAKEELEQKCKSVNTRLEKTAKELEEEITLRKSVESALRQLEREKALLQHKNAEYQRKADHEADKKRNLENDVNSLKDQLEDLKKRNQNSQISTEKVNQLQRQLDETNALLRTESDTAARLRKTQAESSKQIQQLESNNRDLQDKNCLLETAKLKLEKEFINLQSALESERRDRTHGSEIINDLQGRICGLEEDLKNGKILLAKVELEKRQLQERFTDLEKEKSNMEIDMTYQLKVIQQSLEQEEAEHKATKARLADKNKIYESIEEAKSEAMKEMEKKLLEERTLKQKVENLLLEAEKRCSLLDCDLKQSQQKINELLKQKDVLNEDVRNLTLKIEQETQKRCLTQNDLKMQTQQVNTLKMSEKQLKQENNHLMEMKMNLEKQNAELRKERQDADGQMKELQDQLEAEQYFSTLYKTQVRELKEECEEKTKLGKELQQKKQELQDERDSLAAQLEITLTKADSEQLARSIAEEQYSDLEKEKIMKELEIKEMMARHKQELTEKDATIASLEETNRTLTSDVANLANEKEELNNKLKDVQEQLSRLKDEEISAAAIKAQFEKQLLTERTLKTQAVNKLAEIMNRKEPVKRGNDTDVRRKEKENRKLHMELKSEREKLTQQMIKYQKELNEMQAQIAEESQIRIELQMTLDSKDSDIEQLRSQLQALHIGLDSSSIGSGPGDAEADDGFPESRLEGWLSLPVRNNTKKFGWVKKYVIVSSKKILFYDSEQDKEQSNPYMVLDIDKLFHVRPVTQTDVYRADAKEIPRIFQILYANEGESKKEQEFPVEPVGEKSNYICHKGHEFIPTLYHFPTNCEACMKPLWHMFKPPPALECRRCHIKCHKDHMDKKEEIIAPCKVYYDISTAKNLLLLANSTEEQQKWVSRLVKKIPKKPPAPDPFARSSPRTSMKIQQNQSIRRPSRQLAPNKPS

As for `O=C(NCCC1CCN(C2COC2)CC1)c1cccc(CNc2ncc(-c3cn[nH]c3)c3c2CCO3)c1` [Example 28, 3-(((7-(1H-pyrazol-4-yl)-2,3-dihydrofuro[3,2-c]pyridin-4-yl)amino)methyl)-N-(2-(1-(oxetan-3-yl)piperidin-4-yl)ethyl)benzamide], the Ki at ROCK2 [1], at ROCK2 [2], at ROCK1 [3] and at ROCK1 [4] was not above 3 nM throughout. Further, on PKA, the “Ratio Ki PKA/ROCK2” value is listed as “*** (ratio≥10)”.
For the compound `O=C(NC1CC(F)(F)C1)c1cccc(CNc2ncc(-c3cn[nH]c3)c3c2CCO3)c1` [Example 12, 3-(((7-(1H-pyrazol-4-yl)-2,3-dihydrofuro[3,2-c]pyridin-4-yl)amino)methyl)-N-(3,3-difluorocyclobutyl)benzamide], the Ki at ROCK2 [1] and at ROCK1 [4] was 3 to 30 nM throughout. Further, at PKA, the “Ratio Ki PKA/ROCK2” value was “*** (ratio≥10)”.
Consider `O=C(NCc1cnon1)c1cccc(CNc2ncc(-c3cn[nH]c3)c3c2CCO3)c1` [Example 10, N-((1,2,5-oxadiazol-3-yl)methyl)-3-(((7-(1H-pyrazol-4-yl)-2,3-dihydrofuro[3,2-c]pyridin-4-yl)amino)methyl)benzamide], for which the Ki on ROCK2 [1] and on ROCK1 [4] was not above 3 nM each time. Also, on PKA, the “Ratio Ki PKA/ROCK2” value was “*** (ratio≥10)”.
For `O=C(Nc1ccncn1)c1cccc(CNc2ncc(-c3cn[nH]c3)c3c2CCO3)c1` [Example 32, 3-(((7-(1H-pyrazol-4-yl)-2,3-dihydrofuro[3,2-c]pyridin-4-yl)amino)methyl)-N-(pyrimidin-4-yl)benzamide], the Ki at ROCK2 [1] and at ROCK1 [4] was not above 3 nM in each case. At PKA, the “Ratio Ki PKA/ROCK2” value was “*** (ratio≥10)”.
For `c1ccc(CNc2ncc(-c3cn[nH]c3)c3c2CCO3)cc1` [Example C, N-Benzyl-7-(1H-pyrazol-4-yl)-2,3-dihydrofuro[3,2-c]pyridin-4-amine, reference compound], the Ki on ROCK2 [1] and on ROCK1 [4] was more than 30 nM in each case. At PKA, the “Ratio Ki PKA/ROCK2” value is recorded as “* (ratio≤5)”.
In the case of `COc1ccc(NC(=O)c2cccc(CNc3ncc(-c4cn[nH]c4)c4c3CCO4)c2)nc1` [Example 31, 3-(((7-(1H-Pyrazol-4-yl)-2,3-dihydrofuro[3,2-c]pyridin-4-yl)amino)methyl)-N-(5-methoxypyridin-2-yl)benzamide], the Ki on ROCK2 [1] and on ROCK1 [4] was not above 3 nM each time. Besides, the “Ratio Ki PKA/ROCK2” value on PKA is “*** (ratio≥10)”.
As for `O=C(NCC1CCCCO1)c1cccc(CNc2ncc(-c3cn[nH]c3)c3c2CCO3)c1` (single isomer, unassigned; enantiomer 1) [Example 55, 3-(((7-(1H-pyrazol-4-yl)-2,3-dihydrofuro[3,2-c]pyridin-4-yl)amino)methyl)-N-((tetrahydro-2H-pyran-2-yl)methyl)benzamide (Enantiomer 1)], the Ki on ROCK2 [1] and at ROCK1 [4] was not above 3 nM throughout. In addition, the “Ratio Ki PKA/ROCK2” value at PKA is “*** (ratio≥10)”.
With `O=C(NCCCF)c1cccc(CNc2ncc(-c3cn[nH]c3)c3c2CCO3)c1` [Example 3, 3-(((7-(1H-pyrazol-4-yl)-2,3-dihydrofuro[3,2-c]pyridin-4-yl)amino)methyl)-N-(3-fluoropropyl)benzamide], the Ki on ROCK2 [1] and on ROCK1 [4] was 3 to 30 nM throughout. For the same compound, the “Ratio Ki PKA/ROCK2” value at PKA was “*** (ratio≥10)”.
In the case of `CC1(C)CC(NC(=O)c2cccc(CNc3ncc(-c4cn[nH]c4)c4c3CCO4)c2)CO1` (centres unmarked) [Example 6, 3-(((7-(1H-pyrazol-4-yl)-2,3-dihydrofuro[3,2-c]pyridin-4-yl)amino)methyl)-N-(5,5-dimethyltetrahydrofuran-3-yl)benzamide], the Ki at ROCK2 [1] and at ROCK1 [4] was 3 to 30 nM each time. Besides, at PKA, the “Ratio Ki PKA/ROCK2” value is listed as “*** (ratio≥10)”.
Turning to `O=C(NCC1CCCCO1)c1cccc(CNc2ncc(-c3cn[nH]c3)c3c2CCO3)c1` (racemic) [Example 11, 3-(((7-(1H-pyrazol-4-yl)-2,3-dihydrofuro[3,2-c]pyridin-4-yl)amino)methyl)-N-((tetrahydro-2H-pyran-2-yl)methyl)benzamide], the inhibitory constant (Ki) at ROCK2 [1] and on ROCK1 [4] was not above 3 nM in each case. Also, at PKA, the “Ratio Ki PKA/ROCK2” value is on record as “*** (ratio≥10)”.
As for `O=C(NCC1CC1)c1cccc(CNc2ncc(-c3cn[nH]c3)c3c2CCO3)c1` [Example 5, 3-(((7-(1H-pyrazol-4-yl)-2,3-dihydrofuro[3,2-c]pyridin-4-yl)amino)methyl)-N-(cyclopropylmethyl)benzamide], the inhibitory constant (Ki) on ROCK2 [1] and at ROCK1 [4] was 3 to 30 nM throughout. Further, at PKA, the “Ratio Ki PKA/ROCK2” value was “*** (ratio≥10)”.
For `Cn1cnc(CNC(=O)c2cccc(CNc3ncc(-c4cn[nH]c4)c4c3CCO4)c2)c1` [Example 8, 3-(((7-(1H-pyrazol-4-yl)-2,3-dihydrofuro[3,2-c]pyridin-4-yl)amino)methyl)-N-((1-methyl-1H-imidazol-4-yl)methyl)benzamide], the results for the Ki on ROCK2 [1] and at ROCK1 [4] were not above 3 nM and 3 to 30 nM, respectively. In addition, the “Ratio Ki PKA/ROCK2” value at PKA is “*** (ratio≥10)”.
For `O=C(NCC1CCCCO1)c1cccc(CNc2ncc(-c3cn[nH]c3)c3c2CCO3)c1` (single isomer, unassigned; enantiomer 2) [Example 56, 3-(((7-(1H-pyrazol-4-yl)-2,3-dihydrofuro[3,2-c]pyridin-4-yl)amino)methyl)-N-((tetrahydro-2H-pyran-2-yl)methyl)benzamide (Enantiomer 2)], in that order: not above 3 nM, not above 3 nM and “*** (ratio≥10)”.
For `CN(C)CCOc1ccc(NC(=O)c2cccc(CNc3ncc(-c4cn[nH]c4)c4c3CCO4)c2)nc1` [Example 57, 3-(((7-(1H-pyrazol-4-yl)-2,3-dihydrofuro[3,2-c]pyridin-4-yl)amino)methyl)-N-(5-(2-(dimethylamino)ethoxy)pyridin-2-yl)benzamide], in that order: not above 3 nM, not above 3 nM and “*** (ratio≥10)”.
Consider `O=C(NC1CCN(C2CC2)CC1)c1cccc(CNc2ncc(-c3cn[nH]c3)c3c2CCO3)c1` [Example 1, 3-(((7-(1H-Pyrazol-4-yl)-2,3-dihydrofuro[3,2-c]pyridin-4-yl)amino)methyl)-N-(1-cyclopropylpiperidin-4-yl)benzamide], for which the Ki on ROCK2 [1] and on ROCK1 [4] was not above 3 nM in each case. Also, the “Ratio Ki PKA/ROCK2” value on PKA is recorded as “*** (ratio≥10)”.

As usually defined, the Ki is the equilibrium dissociation constant of an inhibitor or competing ligand from its target.

(Values after patent US20240082223A1, “DIHYDROFUROPYRIDINE DERIVATIVES AS RHO- KINASE INHIBITORS” (CHIESI FARMACEUTICI S.P.A., priority 2020, published 2024).)
